Laboratory results from patent publication US20250108019A1, “USE OF LACTIC ACID IN PRODUCT FOR REGULATING AND PROMOTING TISSUE GROWTH” (CHANGCHUN SINOBIOMATERIALS CO., LTD., priority 2022, published 2025).

Columns and labels:
muscle—rectus femoris = experiment: Muscle tissue diameter after local injection in mice (Sirius red, 100× optical microscope); type: in vivo; details: for Muscle tissue measured value, mean: 0.1 ml injection daily, experimental side
Source text: (§1) Experimental animals: Male experimental mice weighing 23±4 g were selected and divided into several groups, with 10 mice in each group. Experimental site: Different tissue sites of mice were selected for the test, specifically muscle—rectus femoris, tendon—Achilles tendon, cartilage—ear cartilage tissue. Experimental group: ? 25 mmol/L aqueous lactic acid solution • ? 50 mmol/L aqueous lactic acid solution • ? 75 mmol/L aqueous lactic acid solution and • ? 0.9% sodium chloride injection Experimental procedure: The right side of the experimental mouse was the experimental side (injected with lactic acid solutions at different concentrations), and the left side was the control side (injected with 0.9% sodium chloride injection). The experiment started with a single injection of 0.1 ml of the corresponding experimental solution at the experimental side every day from 1 to 7 days. […] The experimental and control sides of each mouse were selected for fixation and pathological histological examination. • 1) The tissue to be observed was cut and fixed, and then stained with Sirius red to observe the effects of the injection solution on the tissues at various sites. • 2) The experimental side and the control side were randomly selected for sectioning, the diameter of each tissue was measured under a 100× optical microscope, and the average value of the experimental side and the control side was calculated using the following formula: [formula] The diameters on both sides were compared, and the effects of the lactic acid solution on each tissue site were analyzed using the SSPS 21 calculation results.

tendon—Achilles tendon = experiment: Tendon diameter after local injection in mice (Sirius red, 100× optical microscope); type: in vivo; details: for Tendon measured value, mean: 0.1 ml injection daily, experimental side
Source text: as §1

[1] = test system: cartilage—ear cartilage tissue; experiment: Ear cartilage diameter after local injection in mice (Sirius red, 100× optical microscope); type: in vivo; details: 50 mmol/L; for Ear cartilage tissue measured value, mean: 0.1 ml injection daily, experimental side
Source text: as §1

sciatic nerve [2] = experiment: Sciatic function index (SFI) after sciatic nerve clamp injury; type: in vivo, mice; details: 0.1 ml of 50 mmol/L intraperitoneal
Protocol: Experimental animals: Male experimental mice weighing 30˜35 g were selected and divided into 3 groups, with 26 mice in each group. Experimental site: The sciatic nerve of mice was selected. Experimental groups: ? model group (injury caused by sciatic nerve clamp injury); ? treatment group (after injuried by sciatic nerve clamp, 0.1 ml of 50 mmol/L aqueous lactic acid solution was given by intraperitoneal injection each time); and ? sham group (only the sciatic nerve was freed). Experimental procedure: The treatment group was given medication for 14 consecutive days, and the model group and sham group were given an equal amount of 0.9% sodium chloride injection. • (1) The functional recovery of the sciatic nerve of mice after injury was tracked and evaluated by using the sciatic function index (SFI) at 7 and 14 days after surgery. […] The footprints of the left injured side (E) and the right normal side (N) of the experimental mice were measured. The footprint length (PL), the distance from the first toe to the fifth toe (TS), and the distance from the second toe to the fourth toe (IT) were recorded and put into the formula for calculation. […] The formula is as follows: SFI=109.5(ETS−NTS)/NTS−38.3(EPL−NPL)/NPL+13.3(EIT−NIT)/NIT−8.8 • (2) The degree of toe spread on the injured side was recorded at 3, 7, and 14 days after surgery. […]

sciatic nerve [3] = experiment: Toe spread score after sciatic nerve clamp injury; type: in vivo, mice; details: 0.1 ml of 50 mmol/L intraperitoneal
Protocol: Experimental animals: Male experimental mice weighing 30˜35 g were selected and divided into 3 groups, with 26 mice in each group. Experimental site: The sciatic nerve of mice was selected. Experimental groups: ? model group (injury caused by sciatic nerve clamp injury); ? treatment group (after injuried by sciatic nerve clamp, 0.1 ml of 50 mmol/L aqueous lactic acid solution was given by intraperitoneal injection each time); and ? sham group (only the sciatic nerve was freed). Experimental procedure: The treatment group was given medication for 14 consecutive days, and the model group and sham group were given an equal amount of 0.9% sodium chloride injection. […] The evaluation grades are classified as scores 0˜3, with no spread being score 0 and full spread being score 3.

For CC(O)C(=O)O (centres unmarked) [lactic acid], the “Muscle tissue measured value, mean” value (muscle—rectus femoris; 25 mmol/L, 3 days) was 64.13 μm, the “Muscle tissue measured value, mean” value (muscle—rectus femoris; 25 mmol/L, 7 days) was 79.66 μm and the “Muscle tissue measured value, mean” value (muscle—rectus femoris; 25 mmol/L, 14 days, * P<0.05 vs control side) was 123.8* μm. The “Muscle tissue measured value, mean” value (muscle—rectus femoris; 25 mmol/L, 21 days) was 112.1 μm, the “Muscle tissue on the experimental side, histological observation” value (muscle—rectus femoris; 25 mmol/L, 14 days, FIG. 1) was “significantly thickened” and the “Muscle tissue measured value, mean” value (muscle—rectus femoris; 50 mmol/L, 3 days) was 73.49 μm. For the same compound, the “Muscle tissue measured value, mean” value (muscle—rectus femoris; 50 mmol/L, 7 days, ** P<0.01 vs control side) was 69.14** μm, the “Muscle tissue measured value, mean” value (muscle—rectus femoris; 50 mmol/L, 14 days, * P<0.05 vs control side) was 119.5* μm and the “Muscle tissue measured value, mean” value (muscle—rectus femoris; 50 mmol/L, 21 days) was 111.9 μm. For the same compound, the “Muscle tissue on the experimental side, histological observation” value (muscle—rectus femoris; 50 mmol/L, 7 days, FIG. 2) was “significantly thickened”, the “Tendon measured value, mean” value (tendon—Achilles tendon; 25 mmol/L, 3 days, * P<0.05 vs control) was 853.9* μm and the “Tendon measured value, mean” value (tendon—Achilles tendon; 25 mmol/L, 14 days) was 877.1 μm. The “Tendon measured value, mean” value (tendon—Achilles tendon; 25 mmol/L, 21 days) was 438.3 μm, the “Achilles tendon on the experimental side, histological observation” value (from here on “Achilles tendon … histological observation”) (tendon—Achilles tendon; 25 mmol/L, 3 days after injection, FIG. 3) was “significantly thickened” and the “Tendon measured value, mean” value (tendon—Achilles tendon; 50 mmol/L, 3 days) was 484.6 μm. The “Tendon measured value, mean” value (tendon—Achilles tendon; 50 mmol/L, 7 days) was 547.8 μm, the “Tendon measured value, mean” value (tendon—Achilles tendon; 50 mmol/L, 14 days, * P<0.05 vs control) was 769.5* μm and the “Tendon measured value, mean” value (tendon—Achilles tendon; 50 mmol/L, 21 days) was 543.9 μm. For the same compound, the “Achilles tendon … histological observation” value (tendon—Achilles tendon; 50 mmol/L, Day 14, FIG. 4) was “significantly thickened”, the “Tendon measured value, mean” value (tendon—Achilles tendon; 75 mmol/L, 3 days, * P<0.05 vs control) was 970.9* μm and the “Tendon measured value, mean” value (tendon—Achilles tendon; 75 mmol/L, 7 days, * P<0.05 vs control) was 832.2* μm. The “Tendon measured value, mean” value (tendon—Achilles tendon; 75 mmol/L, 14 days) was 578.2 μm, the “Tendon measured value, mean” value (tendon—Achilles tendon; 75 mmol/L, 21 days, * P<0.05 vs control) was 970.1* μm and the “Achilles tendon … histological observation” value (tendon—Achilles tendon; 75 mmol/L, Day 3, 7, and 21, FIG. 5) was “significantly thickened”. For the same compound, the “Ear cartilage tissue measured value, mean” value (shortened to “Ear cartilage tissue”) ([1]; 3 days) was 158.8 μm, the “Ear cartilage tissue” value ([1]; 7 days) was 237.3 μm and the “Ear cartilage tissue” value ([1]; 14 days) was 170.3 μm. The “Ear cartilage tissue” value ([1]; 21 days, * P<0.05 vs control side) was 253.5* μm, the “Cross-section of the ear cartilage on the experimental side, histological observation” value ([1]; Day 21, FIG. 6) was “significantly thickened” and the SFI score (sciatic nerve [2]; 7 days after surgery, FIG. 7) was “significantly lower than those in the sham group”. The SFI score (sciatic nerve [2]; 14 days after surgery, P<0.01, FIG. 7) was “significantly increased”, the “Toe spread score (0~3)” value (sciatic nerve [3]; 3 days after surgery) was 0 ± 0.4 and the “Toe spread score (0~3)” value (sciatic nerve [3]; 7 days after surgery) was 0.9 ± 0.6. For the same compound, the “Toe spread score (0~3)” value (sciatic nerve [3]; 10 days after surgery) was 2 ± 0.3 and the “Toe spread score (0~3)” value (sciatic nerve [3]; 14 days after surgery) was 2.5 ± 0.5.
